Patent publication US8247612B2, “Organic sulfur compound and its use for controlling harmful arthropod” (Sumitomo Chemical Company, Limited, priority 2007, dated 2012)

How the values were obtained:
Assay type in all cases: in vivo
Culex pipiens pallens = experiment: Test Example 4: larvae in treated water, death rate of Culex pipiens pallens; conditions: 24 h, active ingredient concentration 3.5 ppm in water, 20 last-instar larvae, after one day
Protocol: Preparations of the present compounds (1), (2), (3), (4), (5), (6), (9), (10), (11), (12), (14), (15), (16), (17), (19), (20), (22), (23), (24), (26), (27), (28), (29), (30) and (31) obtained according to Formulation Example 36 were diluted so that the active ingredient concentration was 500 ppm to obtain test solutions. To 100 mL of ion-exchanged water, 0.7 ml of the test solution was added (active ingredient concentration: 3.5 ppm). Into the solution, 20 last-instar larvae of Culex pipiens pallens were released. After one day, the number of surviving Culex pipiens pallens was examined and the death rate of the pest was calculated. As a result, in treatments with the present compounds (1), (2), (3), (4), (5), (6), (9), (10), (11), (12), (14), (15), (16), (17), (19), (20), (22), (23), (24), (26), (27), (28), (29), (30) and (31), the death rate of the pest was 90% or more.

Blattalla germanica = experiment: Test Example 3: treated filter paper with sucrose bait, death rate of Blattalla germanica; conditions: 144 h; 500 ppm test solution, 0.7 ml on filter paper; 2 male imagoes; after 6 days
Protocol: (§1) Preparations of the present compounds (2), (3), (5), (6), (10), (11), (12), (14), (15), (16), (17), (19), (20), (24), (25), (26), (29), (30) and (31) obtained according to Formulation Example 36 were diluted so that the active ingredient concentration was 500 ppm to obtain test solutions.
(§2) A filter paper having a diameter of 5.5 cm was spread on the bottom of a polyethylene cup having a diameter of 5.5 cm and 0.7 ml of the test solution was added dropwise onto the filter paper. As a bait 30 mg of sucrose was uniformly placed on the filter paper. Into the polyethylene cup, 2 male imagoes of Blattalla germanica were released and the cup was sealed with a lid. After 6 days, the number of surviving Blattalla germanica was examined and the death rate of the pest was calculated.
As a result, in treatments with the present compounds (2), (3), (5), (6), (10), (11), (12), (14), (15), (16), (17), (19), (20), (24), (25), (26), (29), (30) and (31), the death rate of the pest was 100%.

Musca domestica = experiment: Test Example 2: treated filter paper with sucrose bait, death rate of Musca domestica; conditions: 500 ppm test solution, 0.7 ml on filter paper, 10 female imagoes, after 24 hours
Protocol: as §1, with “(6), (9),” for “(6),”, “(12), (13),” for “(12),”, “(26), (28),” for “(26),”
as §2, with “10 female” for “2 male”, “Musca domestica” for “Blattalla germanica”, “24 hours,” for “6 days,”
As a result, in treatments with the present compounds (2), (3), (5), (6), (9), (10), (11), (12), (13), (14), (15), (16), (17), (19), (20), (24), (25), (26), (28), (29), (30) and (31), the death rate of the pest was 70% or more.

[1] = system: Haemaphysalis longicornis; experiment: Test Example 5: treated filter paper pouch, death rate of ticks; conditions: filter paper treated with 100 mg/m^2; non-blood-sucking nymphal ticks, 10 ticks/group; after 2 days
Protocol: Five milligrams of any one of the present compounds (3), (10), (14), (15), (16) and (17) was dissolved in 10 mL of acetone. One milliliter of the acetone solution was uniformly applied on one side of a filter paper (TOYO No. 2; 5×10 cm), so that the filter paper was treated with 100 mg/m^2 of the present compound. After drying, the filter paper was folded in two and its edges were clipped to make a pouch. Non-blood-sucking nymphal ticks (Haemaphysalis longicornis, 10 ticks/group) were put into the pouch, and the pouch was sealed with clips. After 2 days, the number of surviving ticks was examined and the death rate was calculated. As a result, in treatments with the present compounds (3), (10), (14), (15), (16) and (17), the death rate of the tick was 90%.

| Compound | pest or weed control at 3.5 ppm (Culex pipiens pallens) | pest or weed control at 500 ppm (Blattalla germanica) | pest or weed control at 500 ppm (Musca domestica) | death rate of the tick [1] |
| --- | --- | --- | --- | --- |
| CC(CCC(C#N)S(=O)(=O)CCC(F)(F)F)C(F)(F)F (centres unmarked) [present compound (10), 6,6,6-trifluoro-5-methyl-2-(3,3,3-trifluoropropylsulfonyl)hexanenitrile] | ≥ 90% | 100% | ≥ 70% | 90% |
| CCC(CCC(C#N)S(=O)(=O)CCC(F)(F)F)C(F)(F)F (centres unmarked) [present compound (14), 5-(trifluoromethyl)-2-(3,3,3-trifluoropropylsulfonyl)heptanenitrile] | ≥ 90% | 100% | ≥ 70% | 90% |
| CCC(CCC(F)(C#N)S(=O)(=O)CCC(F)(F)F)C(F)(F)F (centres unmarked) [present compound (15), 2-fluoro-5-(trifluoromethyl)-2-(3,3,3-trifluoropropylsulfonyl)heptanenitrile] | ≥ 90% | 100% | ≥ 70% | 90% |
| CCC(CCC(Cl)(C#N)S(=O)(=O)CCC(F)(F)F)C(F)(F)F (centres unmarked) [present compound (16), 2-chloro-5-(trifluoromethyl)-2-(3,3,3-trifluoropropylsulfonyl)heptanenitrile] | ≥ 90% | 100% | ≥ 70% | 90% |
| CCC(CCC(C)(C#N)S(=O)(=O)CCC(F)(F)F)C(F)(F)F (centres unmarked) [present compound (17), 2-methyl-5-(trifluoromethyl)-2-(3,3,3-trifluoropropylsulfonyl)heptanenitrile] | ≥ 90% | 100% | ≥ 70% | 90% |
